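GI50 = concentration required for 50% inhibition of growth. Definition used: TGI = concentration required for complete inhibition of growth.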
Assays:
Assay in all cases: NCI tumour cell line growth inhibition, 384-well format
SR leukemia = tested on: SR leukemia
DU-145 prostate = tested on: DU-145 prostate
NCI-H226 lung = tested on: NCI-H226 lung
HS 578T breast = tested on: HS 578T breast
MDA-MB-435 melanoma = tested on: MDA-MB-435 melanoma
SW-620 colon = tested on: SW-620 colon
MDA-MB-468 breast = tested on: MDA-MB-468 breast
HCT-15 colon = tested on: HCT-15 colon
RPMI-8226 leukemia = tested on: RPMI-8226 leukemia
SF-268 CNS = tested on: SF-268 CNS
SN12C renal = tested on: SN12C renal
OVCAR-3 ovarian = tested on: OVCAR-3 ovarian
NCI/ADR-RES ovarian = tested on: NCI/ADR-RES ovarian
SK-OV-3 ovarian = tested on: SK-OV-3 ovarian
UACC-257 melanoma = tested on: UACC-257 melanoma
SK-MEL-5 melanoma = tested on: SK-MEL-5 melanoma
NCI-H23 lung = tested on: NCI-H23 lung
T-47D breast = tested on: T-47D breast
MCF7 breast = tested on: MCF7 breast
ACHN renal = tested on: ACHN renal
UACC-62 melanoma = tested on: UACC-62 melanoma
BT-549 breast = tested on: BT-549 breast
CAKI-1 renal = tested on: CAKI-1 renal
HOP-62 NSCLC = tested on: HOP-62 NSCLC
A498 renal = tested on: A498 renal
SF-295 CNS = tested on: SF-295 CNS
HCC-2998 colon = tested on: HCC-2998 colon
NCI-H460 NSCLC = tested on: NCI-H460 NSCLC
786-0 renal = tested on: 786-0 renal
SK-MEL-28 melanoma = tested on: SK-MEL-28 melanoma
OVCAR-4 ovarian = tested on: OVCAR-4 ovarian
MOLT-4 leukemia = tested on: MOLT-4 leukemia
RXF 393 renal = tested on: RXF 393 renal
MDA-MB-231 breast = tested on: MDA-MB-231 breast
SNB-19 CNS = tested on: SNB-19 CNS
MALME-3M melanoma = tested on: MALME-3M melanoma
HOP-92 NSCLC = tested on: HOP-92 NSCLC
EKVX NSCLC = tested on: EKVX NSCLC
NCI-H322M lung = tested on: NCI-H322M lung
SNB-75 CNS = tested on: SNB-75 CNS
U251 glioblastoma = tested on: U251 glioblastoma
TK-10 renal = tested on: TK-10 renal
PC-3 prostate = tested on: PC-3 prostate
HT29 colon = tested on: HT29 colon
CCRF-CEM leukemia = tested on: CCRF-CEM leukemia
KM12 colon = tested on: KM12 colon
HL-60(TB) leukemia = tested on: HL-60(TB) leukemia
NCI-H522 lung = tested on: NCI-H522 lung
COLO 205 colon = tested on: COLO 205 colon
OVCAR-5 ovarian = tested on: OVCAR-5 ovarian
OVCAR-8 ovarian = tested on: OVCAR-8 ovarian
SF-539 CNS = tested on: SF-539 CNS
M14 melanoma = tested on: M14 melanoma
A549 NSCLC = tested on: A549 NSCLC
SK-MEL-2 melanoma = tested on: SK-MEL-2 melanoma
IGROV1 ovarian = tested on: IGROV1 ovarian

What does the source list for CCc1ccc(/C=C2/SC(=S)NC2=O)cc1?
GI50 (SR leukemia): 12.5 µM; TGI (SR leukemia): 25.1 µM; GI50 (DU-145 prostate): 27.7 µM; TGI (DU-145 prostate): 85.3 µM; GI50 (NCI-H226 lung): 16.7 µM; TGI (NCI-H226 lung): 36.5 µM; GI50 (HS 578T breast): 19.4 µM; TGI (HS 578T breast): 39.5 µM; GI50 (MDA-MB-435 melanoma): 21.2 µM; TGI (MDA-MB-435 melanoma): 44.9 µM; GI50 (SW-620 colon): 24.5 µM; TGI (SW-620 colon): 59.6 µM; GI50 (MDA-MB-468 breast): 16.3 µM; TGI (MDA-MB-468 breast): 33.1 µM; GI50 (HCT-15 colon): 18.5 µM; TGI (HCT-15 colon): 44 µM; GI50 (RPMI-8226 leukemia): 15.6 µM; TGI (RPMI-8226 leukemia): 29.1 µM; GI50 (SF-268 CNS): 19.3 µM; TGI (SF-268 CNS): 45.8 µM; GI50 (SN12C renal): 29.1 µM; TGI (SN12C renal): 95.8 µM; GI50 (OVCAR-3 ovarian): 18 µM; TGI (OVCAR-3 ovarian): 36.5 µM; GI50 (NCI/ADR-RES ovarian): 21 µM; TGI (NCI/ADR-RES ovarian): 45 µM; GI50 (SK-OV-3 ovarian): 18.5 µM; TGI (SK-OV-3 ovarian): 43.2 µM; GI50 (UACC-257 melanoma): 21.3 µM; TGI (UACC-257 melanoma): 42.1 µM; GI50 (SK-MEL-5 melanoma): 18.6 µM; TGI (SK-MEL-5 melanoma): 33.1 µM; GI50 (NCI-H23 lung): 15.7 µM; TGI (NCI-H23 lung): 34.6 µM; GI50 (T-47D breast): 23.6 µM; TGI (T-47D breast): 49.4 µM; GI50 (MCF7 breast): 26.2 µM; TGI (MCF7 breast): 68 µM; GI50 (ACHN renal): 25 µM; TGI (ACHN renal): 60.5 µM; GI50 (UACC-62 melanoma): 31.1 µM; TGI (UACC-62 melanoma): 83.2 µM; GI50 (BT-549 breast): 19.7 µM; TGI (BT-549 breast): 36.1 µM; GI50 (CAKI-1 renal): 19.3 µM; TGI (CAKI-1 renal): 47.6 µM; GI50 (HOP-62 NSCLC): 22.1 µM; TGI (HOP-62 NSCLC): 42.9 µM; GI50 (A498 renal): 16.7 µM; TGI (A498 renal): 33.1 µM; GI50 (SF-295 CNS): 33.7 µM; TGI (SF-295 CNS): > 100 µM; GI50 (HCC-2998 colon): 21.6 µM; TGI (HCC-2998 colon): 43.6 µM; GI50 (NCI-H460 NSCLC): 17.8 µM; TGI (NCI-H460 NSCLC): 33.3 µM; GI50 (786-0 renal): 28.6 µM; TGI (786-0 renal): 88 µM; GI50 (SK-MEL-28 melanoma): 24.7 µM; TGI (SK-MEL-28 melanoma): 55.2 µM; GI50 (OVCAR-4 ovarian): 13.6 µM; TGI (OVCAR-4 ovarian): 46.9 µM; GI50 (MOLT-4 leukemia): 16.9 µM; TGI (MOLT-4 leukemia): 30.6 µM; GI50 (RXF 393 renal): 21.2 µM; TGI (RXF 393 renal): 42.7 µM; GI50 (MDA-MB-231 breast): 20.7 µM; TGI (MDA-MB-231 breast): 49.5 µM; GI50 (SNB-19 CNS): 33.4 µM; TGI (SNB-19 CNS): > 100 µM; GI50 (MALME-3M melanoma): 15.9 µM; TGI (MALME-3M melanoma): 33.9 µM; GI50 (HOP-92 NSCLC): 18.1 µM; TGI (HOP-92 NSCLC): 37.9 µM; GI50 (EKVX NSCLC): 20.8 µM; TGI (EKVX NSCLC): 49.5 µM; GI50 (NCI-H322M lung): 22.5 µM; TGI (NCI-H322M lung): 44.8 µM; GI50 (SNB-75 CNS): 21.4 µM; TGI (SNB-75 CNS): 51.2 µM; GI50 (U251 glioblastoma): 17.3 µM; TGI (U251 glioblastoma): 33.1 µM; GI50 (TK-10 renal): 26.3 µM; TGI (TK-10 renal): 74.1 µM; GI50 (PC-3 prostate): 23.4 µM; TGI (PC-3 prostate): 49.8 µM; GI50 (HT29 colon): 24.9 µM; TGI (HT29 colon): 57.2 µM; GI50 (CCRF-CEM leukemia): 16.5 µM; TGI (CCRF-CEM leukemia): 30.3 µM; GI50 (KM12 colon): 20.7 µM; TGI (KM12 colon): 44.1 µM; GI50 (HL-60(TB) leukemia): 20.3 µM; TGI (HL-60(TB) leukemia): 34.9 µM; GI50 (NCI-H522 lung): 14.7 µM; TGI (NCI-H522 lung): 36.9 µM; GI50 (COLO 205 colon): 27.1 µM; TGI (COLO 205 colon): 54.1 µM; GI50 (OVCAR-5 ovarian): 17.5 µM; TGI (OVCAR-5 ovarian): 43.5 µM; GI50 (OVCAR-8 ovarian): 22.8 µM; TGI (OVCAR-8 ovarian): 51 µM; GI50 (SF-539 CNS): 15.9 µM; TGI (SF-539 CNS): 30.8 µM; GI50 (M14 melanoma): 19.6 µM; TGI (M14 melanoma): 39.6 µM; GI50 (A549 NSCLC): 19.8 µM; TGI (A549 NSCLC): 46.2 µM; GI50 (SK-MEL-2 melanoma): 20.9 µM; TGI (SK-MEL-2 melanoma): 37.7 µM; GI50 (IGROV1 ovarian): 30.5 µM; TGI (IGROV1 ovarian): > 100 µM

Reference: PubChem BioAssay (NCI)
